Measurements: the PolyMetriX glass transition set
± gives the standard deviation of the reports.

Row | Compound | glass transition temperature [°C]
1 | *Oc1ccc(CC(NC(=O)CCc2ccc(OC(=O)CCCCC(*)=O)cc2)C(=O)OCCOCCOCC)cc1 (repeat unit) | 15.00
2 | *CCN(CCOC(=O)c1ccc([Si](C)(C)c2ccc(C(=O)O*)cc2)cc1)c1ccc(/C=C/c2ccc([N+](=O)[O-])cc2)cc1 (repeat unit) | 127.00
3 | */C=C/C(C)(C(=O)OC)C(*)C (repeat unit) | 34.00
4 | *CCCC(C)(C)CNC(=O)CCCCCCCC(=O)N* (repeat unit) | 63.00
5 | *c1ccc(Oc2ccc(-c3c(-c4ccccc4)c4c(c(-c5ccccc5)c3-c3ccccc3)C(=O)N(c3cccc(N5C(=O)c6c(c(-c7ccccc7)c(-c7ccccc7)c(*)c6-c6ccccc6)C5=O)c3)C4=O)cc2)cc1 (repeat unit) | 357.00
6 | *O[Si](*)(C)CCCCCCCCCCC(=O)OCCC(F)(F)C(F)(F)C(F)(F)C(F)(F)C(F)(F)C(F)(F)F (repeat unit) | -69.00
7 | *Sc1ccc(Sc2ccc(Sc3ccc(P(=O)(c4ccccc4)c4ccc(*)cc4)cc3)cc2)cc1 (repeat unit) | 175.00
8 | *COC(=O)OC1C(*)OC2OC(C)(C)OC21 (repeat unit) | 128.00
9 | *CCCCCCCC(=O)OCCCCC1COC(*)O1 (repeat unit) | -44.00
10 | *c1ccc(Oc2ccc(Oc3ccc(N4C(=O)c5ccc(Oc6ccccc6Oc6ccc7c(c6)C(=O)N(*)C7=O)cc5C4=O)cc3)cc2)cc1 (repeat unit) | 202.00
11 | *CC(c1ccccc1)C1C(=O)N(c2ccc(C(C)(C)C)cc2)C(=O)C1* (repeat unit) | 237.00
12 | *c1ccc(-c2ccc(-c3cc(-c4ccccc4)c4cc(C5(c6ccc7nc(*)cc(-c8ccccc8)c7c6)c6ccccc6C(=O)c6ccccc65)ccc4n3)cc2)cc1 (repeat unit) | 350.00
13 | *CC(C)CNC(=O)O* (repeat unit) | 40.00
14 | *O[Si](C)(CCC(F)(F)C(F)(F)C(F)(F)C(F)(F)C(F)(F)C(F)(F)F)O[Si](C)(C)c1ccc([Si](*)(C)C)cc1 (repeat unit) | -55.00
15 | *CC1(C)CC(N2C(=O)c3ccc(-c4ccc5c(c4)C(=O)N(*)C5=O)cc3C2=O)CC(C)(C)C1 (repeat unit) | 311.00
16 | *c1ccc(S(=O)(=O)c2ccc(N3C(=O)C(C)C(SCCOCCSC4C(=O)N(c5ccc(S(=O)(=O)c6ccc(N7C(=O)CC(C)(SCCOCCSC8(C)CC(=O)N(*)C8=O)C7=O)cc6)cc5)C(=O)C4C)C3=O)cc2)cc1 (repeat unit) | 157.00
17 | *Oc1ccc(/N=C/c2ccc(Oc3ccc(C(C)(C)c4ccc(Oc5ccc(/C=N/c6ccc(Oc7ccc(-c8ccc(*)cc8)cc7)cc6)cc5)cc4)cc3)cc2)cc1 (repeat unit) | 120.00
18 | *Oc1ccc(OC(=O)c2ccc(Oc3ccc(C(*)=O)cc3)cc2)c2ccccc12 (repeat unit) | 166.00
19 | *CC(*)OC(=O)C1(C)CCCCC1 (repeat unit) | 86.00
20 | *C(=O)Nc1ccc(Oc2ccccc2-c2ccccc2Oc2ccc(NC(=O)c3ccc4c(c3)C(=O)N(c3ccc(Oc5ccc(C(C)(C)c6ccc(Oc7ccc(N8C(=O)c9ccc(*)cc9C8=O)cc7)cc6)cc5)cc3)C4=O)cc2)cc1 (repeat unit) | 229.00
21 | *c1ccc(C(c2ccc(N(*)c3ccc(C)cc3)cc2)c2ccc([N+](=O)[O-])cc2)cc1 (repeat unit) | 215.00
22 | *CCCCCOc1cccc(C(=O)OC(=O)c2cccc(O*)c2)c1 (repeat unit) | 61.00

Row | Compound | glass transition temperature [°C]
23 | *CC(C)(C)COC(=O)NC(=O)c1ccc(C(=O)NC(=O)O*)cc1 (repeat unit) | 102.00
24 | *CC(*)(C)C(=O)OCCCCOc1ccc(OC(=O)c2ccc(OC)cc2)cc1 (repeat unit) | 57.00
25 | *C(=O)c1ccc2c(c1)C(=O)N(c1ccc(Oc3ccc(C(c4ccc(Oc5ccc(N6C(=O)c7ccc(*)cc7C6=O)cc5C(F)(F)F)cc4)(C(F)(F)F)C(F)(F)F)cc3)c(C(F)(F)F)c1)C2=O (repeat unit) | 220.00
26 | *CC(COCC=C)O* (repeat unit) [poly(allyl glycidyl ether)] | -35.33 ± 57
27 | *Oc1ccc2cc(C(*)=O)ccc2c1 (repeat unit) | 147.00
28 | *Oc1ccc(Oc2ccc(C(=O)c3ccc(Oc4ccc(Oc5cccc(*)n5)cc4)cc3)cc2)cc1 (repeat unit) | 124.00
29 | *Oc1cccc(OC(=O)CCC(*)=O)c1 (repeat unit) | 38.20
30 | *CC(*)OC(=O)C1CCCC1 (repeat unit) | 36.00
31 | *CC(*)(C)C(=O)OCc1ccco1 (repeat unit) | 111.00
32 | *Oc1ccc(C(c2ccc(Oc3ccc(C(=O)c4cc(C(=O)c5ccc(*)cc5)cc(C(C)(C)C)c4)cc3)cc2)(C(F)(F)F)C(F)(F)F)cc1 (repeat unit) | 181.00
33 | */C=C/c1ccc2c(c1)C(CCCCCCOc1ccc3ccc(=O)oc3c1)(CCCCCCOc1ccc3ccc(=O)oc3c1)c1cc(/C=C/c3ccc4c(c3)C(CCCCCC)(CCCCCC)c3cc(*)ccc3-4)ccc1-2 (repeat unit) | 115.00
34 | *CCCOC(=O)O* (repeat unit) | -17.70
35 | *C(=O)Nc1ccc(Oc2ccccc2-c2ccccc2Oc2ccc(NC(=O)c3ccc4c(c3)C(=O)N(c3ccc(Oc5ccccc5-c5ccccc5Oc5ccc(N6C(=O)c7ccc(*)cc7C6=O)cc5)cc3)C4=O)cc2)cc1 (repeat unit) | 227.00
36 | *Nc1ccc(NC(=O)CCCCCCCC(*)=O)cc1 (repeat unit) | 130.00
37 | *O[Si](C)(C)O[Si](C)(C)O[Si](C)(C)O[Si](C)(C)Oc1c(*)c2ccccc2c2ccccc12 (repeat unit) | -35.00
38 | *CC(O)CN(C)S(=O)(=O)c1cccc(S(=O)(=O)N(C)CC(O)COc2ccc(C(C)(C)c3ccc(O*)cc3)cc2)c1 (repeat unit) | 76.00
39 | *Nc1cccc(NC(=O)c2cc(NC(=O)C34CC5CC(CC(C5)C3)C4)cc(C(*)=O)c2)c1 (repeat unit) | 365.00
40 | *OS(=O)(=O)c1cccc(C(=O)c2cccc(S(=O)(=O)Oc3ccc(C(C)(C)c4ccc(*)cc4)cc3)c2)c1 (repeat unit) | 122.00
41 | *Oc1ccc(-c2ccc(Oc3ccc(*)cc3)c3ccccc23)c2ccccc12 (repeat unit) | 226.00
42 | *O[Si](*)(C)CCCCCCOc1ccc(C(=O)Oc2ccc(C(=O)OCC(C)CC)cc2)cc1 (repeat unit) | -9.00
43 | *c1ccc(OCCCCCOc2ccc(N3C(=O)c4ccc(-c5cccc6c5C(=O)N(*)C6=O)cc4C3=O)cc2)cc1 (repeat unit) | 208.00
44 | *CCCS(=O)(=O)CCCCS(=O)(=O)CCCOC(=O)c1cccc(C(=O)O*)c1 (repeat unit) | 65.00

Row | Compound | glass transition temperature [°C]
45 | *CC(*)(C)C(=O)OCCN(C)c1ccc(/N=N/c2ccc(/N=N/c3ccc(C#N)cc3)cc2C)cc1 (repeat unit) | 120.00
46 | *c1cccc(S(=O)(=O)NCCCNS(*)(=O)=O)c1 (repeat unit) | 92.00
47 | *c1ccc(Oc2ccc(C(C)(c3ccccc3)c3ccc(Oc4ccc(-c5nc(-c6ccccn6)nnc5*)cc4)cc3)cc2)cc1 (repeat unit) | 232.00
48 | *CC(C)(C)COC(=O)NC(=O)c1cc(C(=O)NC(=O)O*)cc(C(C)(C)C)c1 (repeat unit) | 144.00
49 | *c1ccc(C(c2ccc(OCCCC)cc2)c2ccc(N(*)c3ccc(C)cc3)cc2)cc1 (repeat unit) | 170.00
50 | *CC(*)OC(=O)C(F)(F)C(F)(F)C(F)(F)C(F)(F)C(F)(F)F (repeat unit) | -9.00
51 | *c1ccc(Oc2ccc(NC(=O)c3cc(C(=O)Nc4ccc(Oc5ccc(-c6nnc(*)o6)cc5)cc4)cc(N4C(=O)c5ccccc5C4=O)c3)cc2)cc1 (repeat unit) | 285.00
52 | *OP(=O)(Oc1ccc(Cl)cc1)Oc1ccc(C(C)(C)c2ccc(*)cc2)cc1 (repeat unit) | 71.00
53 | *c1ccc(-c2cc3c(ccc4ccccc43)cc2-c2ccc(N(*)c3ccc(C)cc3)cc2)cc1 (repeat unit) | 126.00
54 | *c1ccc(Oc2ccc(-c3cc(OCCCCCC)c(-c4ccc(Oc5ccc(-c6nnc(*)o6)cc5)cc4)cc3OCCCCCC)cc2)cc1 (repeat unit) | 103.00
55 | *CCCCCCCCCCCC(=O)Oc1ccc(OC(=O)c2ccc3c(c2)C(=O)N(*)C3=O)cc1 (repeat unit) | 58.00
56 | *c1ccc(Cc2ccc(N3C(=O)CC(Nc4ccc(Cc5ccc(NC6CC(=O)N(*)C6=O)cc5)cc4)C3=O)cc2)cc1 (repeat unit) | 239.00
57 | *C(=O)Nc1ccc(Cc2ccc(NC(=O)c3ccc4c(c3)C(=O)N(c3ccc(S(=O)(=O)c5ccc(N6C(=O)c7ccc(*)cc7C6=O)cc5)cc3)C4=O)cc2)cc1 (repeat unit) | 324.00
58 | *CC(COCC=C)S* (repeat unit) | -59.00
59 | *CC(*)(C)C(=O)OCC1(C)COCOC1 (repeat unit) | 142.00
60 | *c1ccc(N(c2ccc(C#N)cc2)c2ccc(N3C(=O)c4ccc(Oc5ccc(C(C)(C)c6ccc(C(C)(C)c7ccc(Oc8ccc9c(c8)C(=O)N(*)C9=O)cc7)cc6)cc5)cc4C3=O)cc2)cc1 (repeat unit) | 224.00
61 | *[Si](*)(CCCC)CCCC (repeat unit) | -40.50
62 | *c1ccc(Oc2ccc(C(C)(C)c3ccc(Oc4ccc(S(*)(=O)=O)cc4)cc3)cc2)s1 (repeat unit) | 162
63 | *Oc1ccc(CC(NC(=O)CCc2ccc(OC(=O)CCCCCCCCC(*)=O)cc2)C(=O)OCC)cc1 (repeat unit) | 44.00
64 | *Oc1ccc(C(C)(C)c2cccc(C(C)(C)c3ccc(Oc4ccc(C(=O)Nc5ccc(NC(=O)c6ccc(*)cc6)cc5)cc4)cc3)c2)cc1 (repeat unit) | 154.00
65 | *Nc1cccc(NC(=O)c2ccc(C(=O)Nc3ccc(C(=O)NC(*)=S)cc3)cc2)c1 (repeat unit) | 273.00
